Test results taken from ChEMBL document CHEMBL5113398, “Design and synthesis of new quinoline derivatives as selective C-RAF kinase inhibitors with potent anticancer activity” (Eur J Med Chem, 2022).
One block for each compound: values may come before it.

Experiments:
MOLT-4 [1] = assay: Anticancer activity against human MOLT-4 cells assessed as cell growth inhibition incubated for 48 hrs by SRB assay; assay type: functional
HOP-92 = assay: Anticancer activity against human HOP-92 cells assessed as cell growth inhibition incubated for 48 hrs by SRB assay; assay type: functional
NCI-H322M = assay: Anticancer activity against human NCI-H322M cells assessed as cell growth inhibition incubated for 48 hrs by SRB assay; assay type: functional
HT-29 = assay: Anticancer activity against human HT-29 cells assessed as cell growth inhibition incubated for 48 hrs by SRB assay; assay type: functional
KM12 = assay: Anticancer activity against human KM12 cells assessed as cell growth inhibition incubated for 48 hrs by SRB assay; assay type: functional
SF-295 = assay: Anticancer activity against human SF-295 cells assessed as cell growth inhibition incubated for 48 hrs by SRB assay; assay type: functional
SNB-19 [2] = assay: Anticancer activity against human SNB-19 cells assessed as cell growth inhibition incubated for 48 hrs by SRB assay; assay type: functional
Malme-3M = assay: Anticancer activity against human Malme-3M cells assessed as cell growth inhibition incubated for 48 hrs by SRB assay; assay type: functional
M14 [3] = assay: Anticancer activity against human M14 cells assessed as cell growth inhibition incubated for 48 hrs by SRB assay; assay type: functional
MDA-MB-435 = assay: Anticancer activity against human MDA-MB-435 cells assessed as cell growth inhibition incubated for 48 hrs by SRB assay; assay type: functional
SK-MEL-2 = assay: Anticancer activity against human SK-MEL-2 cells assessed as cell growth inhibition incubated for 48 hrs by SRB assay; assay type: functional
SK-MEL-5 [4] = assay: Anticancer activity against human SK-MEL-5 cells assessed as cell growth inhibition incubated for 48 hrs by SRB assay; assay type: functional
UACC-257 = assay: Anticancer activity against human UACC-257 cells assessed as cell growth inhibition incubated for 48 hrs by SRB assay; assay type: functional
UACC-62 [5] = assay: Anticancer activity against human UACC-62 cells assessed as cell growth inhibition incubated for 48 hrs by SRB assay; assay type: functional
IGROV-1 [6] = assay: Anticancer activity against human IGROV-1 cells assessed as cell growth inhibition incubated for 48 hrs by SRB assay; assay type: functional
OVCAR-5 [7] = assay: Anticancer activity against human OVCAR-5 cells assessed as cell growth inhibition incubated for 48 hrs by SRB assay; assay type: functional
CAKI-1 = assay: Anticancer activity against human CAKI-1 cells assessed as cell growth inhibition incubated for 48 hrs by SRB assay; assay type: functional
DU-145 [8] = assay: Anticancer activity against human DU-145 cells assessed as cell growth inhibition incubated for 48 hrs by SRB assay; assay type: functional
MCF7 = assay: Anticancer activity against human MCF7 cells assessed as cell growth inhibition incubated for 48 hrs by SRB assay; assay type: functional
MDA-MB-231 = assay: Anticancer activity against human MDA-MB-231 cells assessed as cell growth inhibition incubated for 48 hrs by SRB assay; assay type: functional
T47D = assay: Anticancer activity against human T47D cells assessed as cell growth inhibition incubated for 48 hrs by SRB assay; assay type: functional
CCRF-CEM = assay: Anticancer activity against human CCRF-CEM cells assessed as total cell growth inhibition incubated for 48 hrs by SRB assay; assay type: functional
K562 = assay: Anticancer activity against human K562 cells assessed as total cell growth inhibition incubated for 48 hrs by SRB assay; assay type: functional
MOLT-4 [9] = assay: Anticancer activity against human MOLT-4 cells assessed as total cell growth inhibition incubated for 48 hrs by SRB assay; assay type: functional
HOP-62 = assay: Anticancer activity against human HOP-62 cells assessed as total cell growth inhibition incubated for 48 hrs by SRB assay; assay type: functional
NCI-H226 = assay: Anticancer activity against human NCI-H226 cells assessed as total cell growth inhibition incubated for 48 hrs by SRB assay; assay type: functional
NCI-H522 = assay: Anticancer activity against human NCI-H522 cells assessed as total cell growth inhibition incubated for 48 hrs by SRB assay; assay type: functional
SW-620 = assay: Anticancer activity against human SW-620 cells assessed as total cell growth inhibition incubated for 48 hrs by SRB assay; assay type: functional
SNB-19 [10] = assay: Anticancer activity against human SNB-19 cells assessed as total cell growth inhibition incubated for 48 hrs by SRB assay; assay type: functional
M14 [11] = assay: Anticancer activity against human M14 cells assessed as total cell growth inhibition incubated for 48 hrs by SRB assay; assay type: functional
SK-MEL-28 = assay: Anticancer activity against human SK-MEL-28 cells assessed as total cell growth inhibition incubated for 48 hrs by SRB assay; assay type: functional
SK-MEL-5 [12] = assay: Anticancer activity against human SK-MEL-5 cells assessed as total cell growth inhibition incubated for 48 hrs by SRB assay; assay type: functional
UACC-62 [13] = assay: Anticancer activity against human UACC-62 cells assessed as total cell growth inhibition incubated for 48 hrs by SRB assay; assay type: functional
IGROV-1 [14] = assay: Anticancer activity against human IGROV-1 cells assessed as total cell growth inhibition incubated for 48 hrs by SRB assay; assay type: functional
OVCAR-3 = assay: Anticancer activity against human OVCAR-3 cells assessed as total cell growth inhibition incubated for 48 hrs by SRB assay; assay type: functional
OVCAR-5 [15] = assay: Anticancer activity against human OVCAR-5 cells assessed as total cell growth inhibition incubated for 48 hrs by SRB assay; assay type: functional
786-0 = assay: Anticancer activity against human 786-0 cells assessed as total cell growth inhibition incubated for 48 hrs by SRB assay; assay type: functional
A498 = assay: Anticancer activity against human A498 cells assessed as total cell growth inhibition incubated for 48 hrs by SRB assay; assay type: functional
RXF 393 = assay: Anticancer activity against human RXF 393 cells assessed as total cell growth inhibition incubated for 48 hrs by SRB assay; assay type: functional
SN12C = assay: Anticancer activity against human SN12C cells assessed as total cell growth inhibition incubated for 48 hrs by SRB assay; assay type: functional
TK-10 = assay: Anticancer activity against human TK-10 cells assessed as total cell growth inhibition incubated for 48 hrs by SRB assay; assay type: functional
DU-145 [16] = assay: Anticancer activity against human DU-145 cells assessed as total cell growth inhibition incubated for 48 hrs by SRB assay; assay type: functional
MDA-MB-468 = assay: Anticancer activity against human MDA-MB-468 cells assessed as total cell growth inhibition incubated for 48 hrs by SRB assay; assay type: functional
[17] = molecular target: RAF proto-oncogene serine/threonine-protein kinase (Homo sapiens, UniProt P04049); assay: Inhibition of c-Raf (unknown origin) in presence of ATP by hotspot kinase assay
[18] = molecular target: Serine/threonine-protein kinase B-raf (Homo sapiens) (UniProt P15056); assay: Inhibition of wild type B-RAF (unknown origin) at 1 uM in presence of ATP by hotspot kinase assay
[19] = molecular target: Epidermal growth factor receptor (Homo sapiens) (UniProt P00533); assay: Inhibition of EGFR (unknown origin) at 1 uM in presence of ATP by hotspot kinase assay
[20] = molecular target: Vascular endothelial growth factor receptor 2 (Homo sapiens) (UniProt P35968); assay: Inhibition of KDR (unknown origin) at 1 uM in presence of ATP by hotspot kinase assay
[21] = molecular target: Hepatocyte growth factor receptor (Homo sapiens) (UniProt P08581); assay: Inhibition of MET (unknown origin) at 1 uM in presence of ATP by hotspot kinase assay
Sequence of Hepatocyte growth factor receptor (Homo sapiens) (P08581 whole entry): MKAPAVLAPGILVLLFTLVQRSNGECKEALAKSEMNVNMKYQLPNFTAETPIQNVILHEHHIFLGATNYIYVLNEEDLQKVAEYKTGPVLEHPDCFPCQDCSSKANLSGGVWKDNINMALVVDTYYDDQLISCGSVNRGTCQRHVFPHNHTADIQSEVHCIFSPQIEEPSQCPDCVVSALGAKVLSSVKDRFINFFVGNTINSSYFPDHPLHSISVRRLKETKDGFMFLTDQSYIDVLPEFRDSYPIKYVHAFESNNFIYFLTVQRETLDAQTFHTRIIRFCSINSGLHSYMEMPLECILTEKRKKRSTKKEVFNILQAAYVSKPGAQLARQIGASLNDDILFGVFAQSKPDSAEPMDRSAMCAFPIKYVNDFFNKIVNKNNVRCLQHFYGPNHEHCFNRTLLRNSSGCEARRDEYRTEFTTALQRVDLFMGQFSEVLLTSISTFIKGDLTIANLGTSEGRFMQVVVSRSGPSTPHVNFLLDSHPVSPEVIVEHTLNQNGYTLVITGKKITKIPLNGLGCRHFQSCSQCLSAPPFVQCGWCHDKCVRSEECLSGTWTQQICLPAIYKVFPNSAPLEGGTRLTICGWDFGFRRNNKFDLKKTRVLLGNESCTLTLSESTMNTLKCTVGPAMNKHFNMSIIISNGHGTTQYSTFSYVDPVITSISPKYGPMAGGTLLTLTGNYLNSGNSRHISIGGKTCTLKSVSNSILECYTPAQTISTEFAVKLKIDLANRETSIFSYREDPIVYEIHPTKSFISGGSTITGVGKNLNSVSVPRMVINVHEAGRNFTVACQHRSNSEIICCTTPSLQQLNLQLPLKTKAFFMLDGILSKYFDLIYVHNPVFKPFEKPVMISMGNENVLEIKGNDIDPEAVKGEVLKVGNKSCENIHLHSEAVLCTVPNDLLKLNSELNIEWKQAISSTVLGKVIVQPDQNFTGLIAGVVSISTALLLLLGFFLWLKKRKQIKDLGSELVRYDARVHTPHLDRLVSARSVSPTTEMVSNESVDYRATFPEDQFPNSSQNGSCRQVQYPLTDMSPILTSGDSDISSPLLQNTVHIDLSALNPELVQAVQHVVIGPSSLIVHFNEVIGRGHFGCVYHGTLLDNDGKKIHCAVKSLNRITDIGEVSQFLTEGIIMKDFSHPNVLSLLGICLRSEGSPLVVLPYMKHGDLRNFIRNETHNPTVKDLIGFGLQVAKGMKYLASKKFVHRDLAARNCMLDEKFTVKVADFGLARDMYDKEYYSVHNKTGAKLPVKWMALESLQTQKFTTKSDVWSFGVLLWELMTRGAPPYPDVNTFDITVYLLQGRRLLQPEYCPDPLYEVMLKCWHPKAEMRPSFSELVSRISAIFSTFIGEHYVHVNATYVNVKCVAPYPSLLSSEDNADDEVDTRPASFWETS

Sequence of Epidermal growth factor receptor (Homo sapiens) (P00533 whole entry): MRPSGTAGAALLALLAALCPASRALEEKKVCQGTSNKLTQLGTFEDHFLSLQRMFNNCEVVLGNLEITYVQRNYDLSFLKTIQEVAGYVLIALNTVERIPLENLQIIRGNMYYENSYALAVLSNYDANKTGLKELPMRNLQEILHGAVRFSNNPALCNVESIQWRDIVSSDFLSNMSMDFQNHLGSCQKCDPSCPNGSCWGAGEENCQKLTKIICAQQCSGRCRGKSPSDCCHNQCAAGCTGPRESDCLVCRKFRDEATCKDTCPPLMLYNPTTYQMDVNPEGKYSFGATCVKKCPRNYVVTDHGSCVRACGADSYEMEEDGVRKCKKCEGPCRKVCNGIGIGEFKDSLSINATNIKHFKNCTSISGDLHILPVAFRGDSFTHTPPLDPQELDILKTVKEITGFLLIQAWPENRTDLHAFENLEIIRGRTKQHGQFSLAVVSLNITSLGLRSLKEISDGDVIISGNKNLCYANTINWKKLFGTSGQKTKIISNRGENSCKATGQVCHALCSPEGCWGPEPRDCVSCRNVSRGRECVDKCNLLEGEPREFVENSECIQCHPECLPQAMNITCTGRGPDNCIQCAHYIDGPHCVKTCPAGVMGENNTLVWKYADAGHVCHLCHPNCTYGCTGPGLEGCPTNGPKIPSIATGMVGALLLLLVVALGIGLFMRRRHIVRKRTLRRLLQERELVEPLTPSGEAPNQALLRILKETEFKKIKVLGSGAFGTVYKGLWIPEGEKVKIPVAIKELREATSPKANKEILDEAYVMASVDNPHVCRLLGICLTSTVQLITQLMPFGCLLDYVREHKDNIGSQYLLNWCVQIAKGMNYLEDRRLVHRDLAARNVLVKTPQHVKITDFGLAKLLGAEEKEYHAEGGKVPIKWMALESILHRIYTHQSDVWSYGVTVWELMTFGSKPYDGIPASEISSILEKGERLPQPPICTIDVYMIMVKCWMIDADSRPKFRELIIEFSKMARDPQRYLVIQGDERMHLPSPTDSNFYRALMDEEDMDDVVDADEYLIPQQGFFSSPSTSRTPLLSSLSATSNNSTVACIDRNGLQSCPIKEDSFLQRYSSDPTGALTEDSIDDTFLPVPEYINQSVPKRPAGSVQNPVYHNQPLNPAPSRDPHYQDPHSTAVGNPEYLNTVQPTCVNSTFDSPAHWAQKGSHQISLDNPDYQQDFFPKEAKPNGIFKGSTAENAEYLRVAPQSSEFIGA
Sequence of Serine/threonine-protein kinase B-raf (Homo sapiens) (P15056 whole entry): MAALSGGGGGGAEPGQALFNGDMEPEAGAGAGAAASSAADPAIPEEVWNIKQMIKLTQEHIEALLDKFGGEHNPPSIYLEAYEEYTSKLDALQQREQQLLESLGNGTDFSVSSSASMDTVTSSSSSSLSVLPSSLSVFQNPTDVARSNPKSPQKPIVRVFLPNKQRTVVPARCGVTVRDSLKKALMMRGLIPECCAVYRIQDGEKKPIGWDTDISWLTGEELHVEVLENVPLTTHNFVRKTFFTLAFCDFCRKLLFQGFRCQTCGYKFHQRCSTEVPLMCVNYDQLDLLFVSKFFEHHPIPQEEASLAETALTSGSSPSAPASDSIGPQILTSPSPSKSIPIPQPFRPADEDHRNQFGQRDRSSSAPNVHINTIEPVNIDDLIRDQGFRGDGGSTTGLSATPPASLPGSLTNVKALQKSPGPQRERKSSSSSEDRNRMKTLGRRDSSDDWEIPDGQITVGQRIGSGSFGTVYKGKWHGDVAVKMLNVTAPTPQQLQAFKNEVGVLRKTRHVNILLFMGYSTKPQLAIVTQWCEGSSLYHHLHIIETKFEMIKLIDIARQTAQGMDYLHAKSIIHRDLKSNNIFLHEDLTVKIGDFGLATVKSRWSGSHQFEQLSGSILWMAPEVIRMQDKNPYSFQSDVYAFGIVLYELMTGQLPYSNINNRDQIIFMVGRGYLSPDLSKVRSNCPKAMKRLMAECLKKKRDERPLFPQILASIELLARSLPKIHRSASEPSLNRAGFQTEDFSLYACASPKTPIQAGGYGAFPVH
Sequence of RAF proto-oncogene serine/threonine-protein kinase (P04049 whole entry): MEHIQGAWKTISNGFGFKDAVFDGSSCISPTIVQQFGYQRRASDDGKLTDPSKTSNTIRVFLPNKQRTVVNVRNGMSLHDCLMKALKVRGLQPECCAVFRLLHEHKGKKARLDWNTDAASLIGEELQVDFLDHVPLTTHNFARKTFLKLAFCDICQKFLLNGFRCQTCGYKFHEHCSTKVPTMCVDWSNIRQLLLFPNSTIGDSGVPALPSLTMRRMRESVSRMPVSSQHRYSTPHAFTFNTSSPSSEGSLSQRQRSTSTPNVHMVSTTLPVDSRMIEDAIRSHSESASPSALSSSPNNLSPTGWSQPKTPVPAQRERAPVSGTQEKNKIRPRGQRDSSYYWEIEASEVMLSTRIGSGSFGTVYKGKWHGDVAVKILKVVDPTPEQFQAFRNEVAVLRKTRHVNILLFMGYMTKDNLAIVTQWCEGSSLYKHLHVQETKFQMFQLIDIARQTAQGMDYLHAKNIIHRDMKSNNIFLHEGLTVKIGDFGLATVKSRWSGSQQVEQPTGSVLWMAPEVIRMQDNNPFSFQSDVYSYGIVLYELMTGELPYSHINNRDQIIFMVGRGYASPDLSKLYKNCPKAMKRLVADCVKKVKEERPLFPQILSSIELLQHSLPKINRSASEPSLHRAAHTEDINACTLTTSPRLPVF

GI50 (MOLT-4 [1]): 1480 nM
GI50 (NCI-H322M): 2.82 µM
GI50 (HT-29): 11.2 µM
GI50 (MDA-MB-435): 1940 nM
GI50 (SK-MEL-2): 1650 nM
GI50 (SK-MEL-5 [4]): 1150 nM
GI50 (OVCAR-5 [7]): 4.02 µM
GI50 (DU-145 [8]): 2.69 µM
GI50 (MCF7): 1260 nM
GI50 (MDA-MB-231): 2000 nM
GI50 (T47D): 1320 nM
IC50 [17]: 82 nM
inhibition [18]: 31.6%
inhibition [19]: -2.4%
inhibition [20]: 1.56%
inhibition [21]: 4.3%
SMILES: COc1cc2cc(Oc3ccc(NC(=O)Nc4ccc(Cl)c(C(F)(F)F)c4)cc3)c(C)nc2cc1OCCN1CCOCC1
GI50 (HOP-92): 1660 nM
GI50 (KM12): 5.3 µM
GI50 (SF-295): 1190 nM
GI50 (SNB-19 [2]): 3.23 µM
GI50 (Malme-3M): 1520 nM
GI50 (M14 [3]): 1520 nM
GI50 (UACC-257): 1570 nM
GI50 (UACC-62 [5]): 1360 nM
GI50 (IGROV-1 [6]): 2430 nM
GI50 (CAKI-1): 1800 nM
TGI (CCRF-CEM): > 100 µM
TGI (K562): 6.95 µM
TGI (MOLT-4 [9]): 10.5 µM
TGI (HOP-62): 4.55 µM
TGI (NCI-H226): 5.91 µM
TGI (NCI-H522): 4.07 µM
TGI (SW-620): 5.52 µM
TGI (SNB-19 [10]): 19.8 µM
TGI (M14 [11]): 3.45 µM
TGI (SK-MEL-28): 3.12 µM
TGI (SK-MEL-5 [12]): 2370 nM
TGI (UACC-62 [13]): 3.46 µM
TGI (IGROV-1 [14]): 23.2 µM
TGI (OVCAR-3): 3.47 µM
TGI (OVCAR-5 [15]): 65.2 µM
TGI (786-0): 4.15 µM
TGI (A498): 9.62 µM
TGI (RXF 393): 3.99 µM
TGI (SN12C): 56.2 µM
TGI (TK-10): 35.2 µM
TGI (DU-145 [16]): 13.8 µM
TGI (MDA-MB-468): 2.06 µM

GI50 (MOLT-4 [1]): 1860 nM
GI50 (NCI-H322M): 3.37 µM
GI50 (HT-29): 3.07 µM
GI50 (MDA-MB-435): 1910 nM
GI50 (SK-MEL-2): 2380 nM
GI50 (SK-MEL-5 [4]): 1140 nM
GI50 (OVCAR-5 [7]): 5.11 µM
GI50 (DU-145 [8]): 3.5 µM
GI50 (MCF7): 1460 nM
GI50 (MDA-MB-231): 2830 nM
GI50 (T47D): 1910 nM
IC50 [17]: 67 nM
inhibition [18]: 23.7%
inhibition [19]: 1.43%
inhibition [20]: -2.9%
inhibition [21]: 3.05%
SMILES: COc1cc2cc(Oc3ccc(NC(=O)Nc4ccc(F)c(C(F)(F)F)c4)cc3)c(C)nc2cc1OCCN1CCOCC1
GI50 (HOP-92): 1310 nM
GI50 (KM12): 2.69 µM
GI50 (SF-295): 1350 nM
GI50 (SNB-19 [2]): 3.96 µM
GI50 (Malme-3M): 1570 nM
GI50 (M14 [3]): 1530 nM
GI50 (UACC-257): 1750 nM
GI50 (UACC-62 [5]): 1360 nM
GI50 (IGROV-1 [6]): 2690 nM
GI50 (CAKI-1): 2060 nM
TGI (CCRF-CEM): 11.5 µM
TGI (K562): 10.3 µM
TGI (MOLT-4 [9]): 11.4 µM
TGI (HOP-62): 20.5 µM
TGI (NCI-H226): 13.2 µM
TGI (NCI-H522): 9.43 µM
TGI (SW-620): 9.86 µM
TGI (SNB-19 [10]): 19.3 µM
TGI (M14 [11]): 3.31 µM
TGI (SK-MEL-28): 3.13 µM
TGI (SK-MEL-5 [12]): 2360 nM
TGI (UACC-62 [13]): 4.24 µM
TGI (IGROV-1 [14]): 19.5 µM
TGI (OVCAR-3): 13.6 µM
TGI (OVCAR-5 [15]): 21.7 µM
TGI (786-0): 3.44 µM
TGI (A498): 10.2 µM
TGI (RXF 393): 3.94 µM
TGI (SN12C): 15.5 µM
TGI (TK-10): 25.1 µM
TGI (DU-145 [16]): 15.2 µM
TGI (MDA-MB-468): 10.4 µM
